Source: PMC7765794 (Nutrients, 2020)

Biological target: T1, human ODC (Homo sapiens, UniProt P11926)
T1 construct: His-tag (N); made in house; host or cells: Escherichia coli JM109
T1 sequence (P11926 1-461): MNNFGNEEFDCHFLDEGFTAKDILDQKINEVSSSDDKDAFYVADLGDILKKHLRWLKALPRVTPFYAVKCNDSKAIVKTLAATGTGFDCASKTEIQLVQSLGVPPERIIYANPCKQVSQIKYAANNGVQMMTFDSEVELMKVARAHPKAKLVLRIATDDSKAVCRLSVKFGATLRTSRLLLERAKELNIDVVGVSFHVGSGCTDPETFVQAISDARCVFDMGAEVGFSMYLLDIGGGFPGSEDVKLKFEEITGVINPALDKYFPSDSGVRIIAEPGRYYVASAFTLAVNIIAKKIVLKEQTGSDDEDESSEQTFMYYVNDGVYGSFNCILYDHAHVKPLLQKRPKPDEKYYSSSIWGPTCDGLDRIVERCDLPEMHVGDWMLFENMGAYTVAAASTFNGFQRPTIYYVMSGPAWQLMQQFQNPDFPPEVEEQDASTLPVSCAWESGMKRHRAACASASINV
Assay: ODC enzyme activity assay and inhibition study (CO2-L3K coupled spectrophotometric assay);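 further: His-tagged human ODC expressed in Escherichia coli, activity followed as decarboxylation coupled via PEP carboxylation and malate formation to NADH analog oxidation, absorbance drop at 405 nm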
Format: biochemical
Conditions: for IC50 / IC50 to ornithine decarboxylase (ODC): purified human ODC, 37 °C, 10 mM ornithine, 0.2 mM PLP, n = 3; for IC50: read-out: IC50 to ornithine decarboxylase (ODC); for ODC suppression activity (in words): purified human ODC enzyme activity; for IC50 relative to that of myricetin: IC50 greater than that of myricetin

Compound | IC50 to ornithine decarboxylase (ODC) | ODC suppression activity (in words) | further results
NCCCC(N)(C(=O)O)C(F)F (racemic) [DFMO, α-DL-difluoromethylornithine, reference compound] |  |  | IC50: ~100 µM
O=C1C=Cc2ccccc2C1=O [1,2-Naphthoquinone, reference compound] |  | cannot inhibit ODC activity | ODC suppression activity (in words) (listed as 1,2-naphthoquinone): none of these compounds were able to suppress ODC activity
Cc1ncc(CO)c(C)c1O [4-Deoxypyridoxine, reference compound] |  | cannot inhibit ODC activity | ODC suppression activity (in words) (listed as 4-deoxypyridoxine): none of these compounds were able to suppress ODC activity
Cc1ncc(CO)c(C(=O)O)c1O [4-Pyridoxic acid, reference compound] |  | cannot inhibit ODC activity | ODC suppression activity (in words) (listed as 4-pyridoxic acid): none of these compounds were able to suppress ODC activity
O=c1cc(-c2ccccc2)oc2cc(O)c(O)cc12 [6,7-Dihydroxyflavone] |  |  | IC50 relative to that of 7,8-DHF (IC50 greater than that of 7,8-DHF): approximately 100 fold; IC50: 289 µM
O=c1cc(-c2ccccc2)oc2ccc(O)cc12 [6-Hydroxyflavone] | No inhibition | did not show any ODC suppression activity | 
O=c1cc(-c2ccccc2)oc2c(O)c(O)ccc12 [7,8-Dihydroxyflavone] |  |  | inhibition pattern with respect to L-ornithine (double reciprocal plots): noncompetitive inhibition pattern; IC50: 2.54 µM; Ki (with respect to substrate L-ornithine, noncompetitive fit, read-out: Ki(ornithine) against ODC): 1.4 ± 0.1 µM
COc1ccc2c(=O)cc(-c3ccccc3)oc2c1OC [7,8-Dimethoxyflavone] | No inhibition | little ODC suppression activity | 
O=c1cc(-c2ccccc2)oc2cc(O)ccc12 [7-Hydroxyflavone] | No inhibition | did not show any ODC suppression activity | 
O=c1cc(-c2ccc(O)cc2)oc2cc(O)cc(O)c12 [Apigenin] | No inhibition | did not show any ODC suppression activity | 
COc1ccc(-c2coc3cc(O)cc(O)c3c2=O)cc1 [Biochanin] | No inhibition | did not show any ODC suppression activity | 
Cn1c(=O)c2c(ncn2C)n(C)c1=O [Caffeine, reference compound] |  | cannot inhibit ODC activity | ODC suppression activity (in words) (listed as caffeine): none of these compounds were able to suppress ODC activity
O=c1cc(-c2ccccc2)oc2cc(O)cc(O)c12 [Chrysin] | No inhibition | little ODC suppression activity | 
CCOc1cc(C=O)ccc1O [Ethyl vanillin, reference compound] |  | cannot inhibit ODC activity | ODC suppression activity (in words) (listed as ethyl vanillin): none of these compounds were able to suppress ODC activity
O=c1c(O)c(-c2ccc(O)c(O)c2)oc2cc(O)ccc12 [Fisetin] |  |  | IC50: 96 µM
O=c1c(O)c(-c2ccccc2)oc2ccccc12 [Flavonol] | No inhibition | little ODC suppression activity | 
O=c1c(O)c(-c2ccc(O)cc2)oc2cc(O)cc(O)c12 [Kaempferol] |  | did not show any ODC suppression activity | 
O=c1cc(-c2ccc(O)c(O)c2)oc2cc(O)cc(O)c12 [Luteolin] |  |  | IC50 relative to that of myricetin: 10 fold; IC50: 90 µM
O=c1c(O)c(-c2ccc(O)cc2O)oc2cc(O)cc(O)c12 [Morin] |  |  | IC50 relative to that of myricetin: 10 fold; IC50: 82 µM
Cc1ncc(CO)c(CN)c1O [Pyridoxamine, reference compound] |  | cannot inhibit ODC activity | ODC suppression activity (in words) (listed as pyridoxamine): none of these compounds were able to suppress ODC activity
O=c1c(O)c(-c2ccc(O)c(O)c2)oc2cc(O)cc(O)c12 [Quercetin] |  |  | IC50 relative to that of myricetin: 10 fold; IC50: 82 µM
C[C@@H]1O[C@@H](OC[C@H]2O[C@@H](Oc3c(-c4ccc(O)c(O)c4)oc4cc(O)cc(O)c4c3=O)[C@H](O)[C@@H](O)[C@@H]2O)[C@H](O)[C@H](O)[C@H]1O [Rutin] |  | did not display apparent ODC-suppressing activity | IC50: > 120 µM
Oc1ccc2c(c1)OCO2 [Sesamol, reference compound] |  | cannot inhibit ODC activity | ODC suppression activity (in words) (listed as sesamol): none of these compounds were able to suppress ODC activity
Cn1cnc2c1c(=O)[nH]c(=O)n2C [Theobromine, reference compound] |  | cannot inhibit ODC activity | ODC suppression activity (in words) (listed as theobromine): none of these compounds were able to suppress ODC activity
Cn1c(=O)c2[nH]cnc2n(C)c1=O [Theophylline, reference compound] |  | cannot inhibit ODC activity | ODC suppression activity (in words) (listed as theophylline): none of these compounds were able to suppress ODC activity

Second part, led by results:

IC50 to ornithine decarboxylase (ODC) | Compound | ODC suppression activity (in words) | further results
No inhibition | O=c1c(-c2ccc(O)cc2)coc2cc(O)ccc12 [Daidzein] | did not show any ODC suppression activity | 
No inhibition | O=c1cc(-c2ccccc2)oc2ccccc12 [Flavone] | little ODC suppression activity | 
No inhibition | O=C1C[C@@H](c2ccc(O)cc2)Oc2cc(O)cc(O)c21 [Naringenin] | did not show any ODC suppression activity | 
No inhibition | O=C1C[C@@H](c2ccccc2)Oc2cc(O)cc(O)c21 [Pinocembrin] | little ODC suppression activity | 
